Here are results for two compounds from US20220089679A1, “FUSION PROTEIN WITH IMMUNOSUPPRESSIVE ACTIVITY” (FUNDACIÓ INSTITUT D'INVESTIGACIÓ BIOMÈDICA DE BELL, priority 2019, published 2022).

For series [1], the system named is Lewis rats transplanted with a single kidney from a Wistar donor rat. Put plainly: Rat renal allotransplantation (life-sustaining renal transplantation model). The class given is in vivo. As to conditions: 500 μg intraperitoneally 2 hours before transplantation, then daily for 6 days, followed for 3 weeks, versus non-treated group, p<0.05. The text has this:
A model of life-sustaining renal transplantation previously described (De Ramon et al., “CD154-CD40 T-cell co-stimulation pathway is a key mechanism in kidney ischemia-reperfusion injury”, Kidney Int., 2015, vol. 88(3), pp. 538-49) was used to test the therapeutic effects of the fusion protein. It is known that in experimental renal transplantation with highly alloreactive donor-recipient combination, severe acute rejection results in high recipients' mortality.
Briefly, Lewis rats were bi-nephrectomized and subsequently transplanted with a single kidney from a Wistar donor rat. […] In the control group, recipient Lewis rats received no treatment. Transplanted rats were followed for 3 weeks.

In the next series the test system is NZB/W F1 hybrid mice. Put plainly: Murine lupus nephritis. The class given is in vivo. The settings on record: for mortality / survival: up to the end of experiments at 32 weeks, Hybri 20 mg/kg ip days 0, 4, 14, 28, 56, 84, CYP 50 mg/kg ip every 10 days, versus PBS. The text has this:
NZB/W F1 hybrid mice spontaneously develop a disease closely resembling human systemic lupus erythematous (SLE) with severe renal involvement, which is the main cause of animal mortality. In fact, this model, with a well-characterized evolution of renal disease, has been widely used to study the therapeutic potential of several new agents for SLE, as previously reported (Ripoll et al., “CD40 gene silencing reduces the progression of experimental lupus nephritis modulating local milieu and systemic mechanisms”, PLoS One, 2013, vol. 8(6)).
From 20 weeks of age, and close to a potential therapeutic schedule in humans, mice (n=9) received Hybri intraperitoneally (ip) at 20 mg/kg on days 0, 4, 14, 28, 56 and 84; or CYP (n=8) ip. at 50 mg/kg every 10 days; or 200 μl PBS ip. twice a week (n=8).

The test system of series [2] is CD3+ T cell proliferation. As to the kind of experiment: Mixed lymphocyte reaction (MLR) in vitro proliferation assay. Type of series: cell-based, human. The settings on record: for decrease of CD3+ cells proliferation: 6 days, as compared to spontaneous proliferation without immunosuppressive agents (MLR), two responder subjects. The method, then:
Mixed Lymphocyte reactions (MLR) were performed in the presence or absence of different immunosuppressive drugs to test their inhibitory effect on T cell proliferation, following conventional methodology (Levitsky J, et al., “Allospecific regulatory effects of sirolimus and tacrolimus in the human mixed lymphocyte reaction”, Transplantation, 2011, vol. 91(2), pp. 199-206).
Briefly, peripheral blood mononuclear cells (PBMC) from healthy controls were used as responder cells. CD3^+-depleted splenocytes extracted from deceased donors and mature dendritic cells (DCs) were extracted with CD2 positive selection cocktail (Stem Cell Technologies, France) following manufacturer's instructions and they were used as stimulators in the assay. PBMC from peripheral blood samples and splenocytes were isolated by standard Ficoll density gradient centrifugation (Bargalló M E. et al., “Utility of Systematic Isolation of immune cell subsets from HIV-infected individuals for miRNA profiling”, J Immunol Methods, 2017, vol. 442, pp. 12-19). In order to obtain mature DCs, monocytes were isolated from PBMC by negative selection with Human monocyte enrichment kit (Stem Cell Technologies, France) following manufacturer's instructions, cultured for 6 days with complete Ex-vivo medium supplemented with 2% of human serum (Sigma Aldrich), GMSF (15 ng/ml; R&D) and IL-4 (10 ng/ml; Sigma Aldrich) (37° C. 5% CO2), and stimulated with LPS (1 μg/ml; Sigma Aldrich) for 24 h.
First, PBMC were stained with carboxyfluorescein succinimidyl ester (CFSE) (Lloberas N, et al., “Dendritic cells phenotype fitting under hypoxia or lipopolysaccharide; adenosine 5′-triphosphate-binding cassette transporters far beyond an efflux pump”, Clin Exp Immunol., 2013, vol. 172(3), pp. 444-54). […] At day 6, cells were harvested and stained for CD3-APC and CD4-PE (BD Bioscience, San Jose, Calif., USA) 20 minutes in the dark following manufacturer's instructions, and T-cell proliferation were analyzed by flow cytometry (BD FACS CANTO 11, San Jose, Calif., USA) using Facs Diva software and following manufacturer's instructions.
The in vitro proliferation assay was performed with high HLA-mismatch combination between 2 stimulator DCs and two corresponding responder subjects ([…], S2) T cells.

Series [3] deals with Wistar rats with 40 minutes of bilateral renal ischemia.
Protocol: Rats were sham operated or suffered from renal warm ischemia and were treated with the fusion protein of the invention of sequence SEQ ID NO: 6 (Hybri) at 20 mg/kg ip. 24 hours before renal ischemia; and in the control ischemic group rats received PBS.

As to “Hybri: fusion protein of human PDL2 extracellular domain, (GGGGS)3 linker, human CTLA4 extracellular domain, Fc of human IgG, poly-histidine tag; SEQ ID NO: 6”, the survival result in series [1] is “significantly higher survival”; in series [1] (listed as fusion polypeptide) it was “strongly improved the survival”. Besides, in the series with NZB/W F1 hybrid mice (FIG. 8B), the “anti-DNA antibodies in serum” value is on record as “effectively reduced anti-DNA antibodies to similar levels than CYP”. Besides, in the series on NZB/W F1 hybrid mice (mouse, in vivo), the “albuminuria (albuminuria/creatininuria ratio)” value is recorded as “as efficient as CYP in reducing albuminuria”. The results for the mortality / survival result with NZB/W F1 hybrid mice and with NZB/W F1 hybrid mice (listed as fusion polypeptide) were “no mortality” and “strongly improved the survival”, respectively. Further, the “inhibition of mature CD3+ T cell proliferation (in words)” value in series [2] (10 μg/mL and 20 μg/mL, compared with tacrolimus (10 nM), FIG. 5) is listed as “strongly inhibit”. Further, the “decrease of CD3+ cells proliferation” value is reported as 97%-99% in series [2] (10 μg/mL) and 94%-99% in series [2] (20 μg/mL). Further, in series [2] (summary statement of FIG. 5), the “reduction in T cell proliferation (immunosuppressive effect, FIG. 5)” value is recorded as “nearly complete”. In addition, the “preservation of renal structure” value in series [3] (20 mg/kg ip. 24 hours before renal ischemia) is listed as “better preservation of renal structure”. Moreover, in series [3] (20 mg/kg ip. 24 hours before renal ischemia, 24 hours after warm ischemia, versus PBS, p=0.0038), the “renal function (serum creatinine levels)” value is reported as “significantly improved renal function”. In addition, in series [3] (compared to non-treated ischemic kidneys), the “T cells with regulatory phenotype (Tregs) per high power field in renal parenchyma” value was “increased”. In series [3] (rat, in vivo), the “renal failure in sham operated rats” value is “did not develop renal failure”.

In the case of `O=P1(N(CCCl)CCCl)NCCCO1` (stereo not shown) [CYP, cyclophosphamide, reference compound], in the series on NZB/W F1 hybrid mice (at 3 months of therapy), the “albuminuria (albuminuria/creatininuria ratio)” value was “reducing albuminuria”. The mortality / survival result in the series with NZB/W F1 hybrid mice is “no mortality”.
